Some test systems named below: RPMI-8226; HOP-62; SK-MEL-2; EKVX; CCRF-CEM; SK-MEL-28; UACC-62; HCC 2998; M14; CAKI-1; SF-268; A498; NCI-H522; HT-29; HCT-116; RXF 393; SF-295; 786-0; COLO 205; OVCAR-8.
Experiment in all cases: NCI anticancer screen, dose series, 48 h

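Five concentrations, 48 hours, 96-well plates. At the GI50, growth is halved.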 The source made the active and inactive calls. Rule as the data show it: active = GI50 up to about 1.1 µM and inactive = higher. Bounds are passed on as bounds.

Turning to `N#CC1(Nc2ccc(-c3ccc(NC4(C#N)CCCC4)cc3)cc2)CCCC1`, the GI50 is > 100 µM (inactive) with RPMI-8226; > 100 µM (inactive) with HOP-62; > 100 µM (inactive) in the experiment on SK-MEL-2; > 100 µM (inactive) in the experiment with EKVX; 0.0104 µM (active) with CCRF-CEM; > 100 µM (inactive) in the experiment with SK-MEL-28. Further, the GI50 with UACC-62, in the experiment on HCC 2998, in the experiment on M14, in the experiment with CAKI-1, in the experiment on SF-268 and in the experiment with A498 was > 100 µM (inactive) each time. The GI50 with NCI-H522 was > 100 µM (inactive); in the experiment with HT-29, 77.4 µM (inactive); in the experiment on HCT-116 it was > 100 µM (inactive); with RXF 393 it was > 100 µM (inactive); in the experiment on SF-295 it was > 100 µM (inactive); with 786-0, > 100 µM (inactive). Further, the GI50 in the experiment with COLO 205 and in the experiment on OVCAR-8 was > 100 µM (inactive) each time.

With `O=C(CCN1CCCCC1)C(=Cc1ccccc1)C(=O)CCN1CCCCC1`, the GI50 in the experiment on RPMI-8226 is 20.8 µM (inactive); with HOP-62 it was > 100 µM (inactive); in the experiment on SK-MEL-2, > 100 µM (inactive); in the experiment with EKVX it was > 100 µM (inactive); with CCRF-CEM it was 17.2 µM (inactive); with SK-MEL-28, > 10 µM (inactive). Besides, the GI50 is 31.4 µM (inactive) in the experiment with UACC-62; > 100 µM (inactive) with HCC 2998; 5.18 µM (inactive) in the experiment with M14; 2.45 µM (inactive) in the experiment on CAKI-1; > 78.9 µM (inactive) with SF-268; > 100 µM (inactive) in the experiment with A498. Moreover, the GI50 with NCI-H522 is 1.23 µM (inactive); in the experiment on HT-29, 6.68 µM (inactive); with HCT-116, 42.3 µM (inactive); in the experiment on RXF 393, 6.52 µM (inactive); with SF-295 it was > 100 µM (inactive); with 786-0 it was 7.28 µM (inactive). Also, the figures for the GI50 with COLO 205 and in the experiment with OVCAR-8 were 27.7 µM (inactive) and 25.1 µM (inactive), respectively.

With `O=C(NCCCNCCCCNCCCNC(=O)c1cc(-c2ccccc2)nc2ccccc12)c1cc(-c2ccccc2)nc2ccccc12`, the GI50 in the experiment on RPMI-8226 is 2.16 µM (inactive); in the experiment with HOP-62, 2.36 µM (inactive); with SK-MEL-2 it was 1.62 µM (inactive); in the experiment on EKVX it was 5.18 µM (inactive); in the experiment with CCRF-CEM, 1.88 µM (inactive); in the experiment on SK-MEL-28, 1.87 µM (inactive). In addition, the GI50 in the experiment on UACC-62 is 2.16 µM (inactive); in the experiment with HCC 2998, 2.01 µM (inactive); in the experiment on M14 it was 2.15 µM (inactive); in the experiment on CAKI-1 it was 20.3 µM (inactive); with SF-268, 1.71 µM (inactive); with A498, 20.7 µM (inactive). Also, the GI50 with NCI-H522 was 2.01 µM (inactive); in the experiment with HT-29, 1.91 µM (inactive); in the experiment on HCT-116, 3.09 µM (inactive); with RXF 393 it was 3.69 µM (inactive); with SF-295 it was 3.26 µM (inactive); with 786-0, 1.69 µM (inactive). The GI50 was 1.91 µM (inactive) with COLO 205 and 1.82 µM (inactive) in the experiment with OVCAR-8.

For the compound `Cc1cccc2c(N)c3cccc(C(=O)NCCN4CCOCC4)c3nc12`, the GI50 in the experiment with RPMI-8226 was 0.493 µM (active); in the experiment on HOP-62, 0.363 µM (active); with SK-MEL-2, 1.11 µM (active); with EKVX, 0.664 µM (active); in the experiment with CCRF-CEM it was 0.248 µM (active); in the experiment on SK-MEL-28 it was 1.45 µM (inactive). Besides, the GI50 in the experiment on UACC-62 was 0.984 µM (active); in the experiment with HCC 2998 it was 1.48 µM (inactive); in the experiment on M14, 0.495 µM (active); in the experiment with CAKI-1, 0.675 µM (active); in the experiment on SF-268, 0.0603 µM (active); with A498 it was 1.31 µM (inactive). Besides, the GI50 is 0.182 µM (active) in the experiment on NCI-H522; 0.116 µM (active) with HT-29; 0.0889 µM (active) in the experiment with HCT-116; 0.697 µM (active) in the experiment with RXF 393; 0.318 µM (active) in the experiment on SF-295; 0.218 µM (active) in the experiment with 786-0. The GI50 in the experiment on COLO 205 was 0.294 µM (active); in the experiment with OVCAR-8, 0.249 µM (active).

`Nc1ccccc1SCc1csc(-c2ccc(Cl)cc2)n1`: the GI50 in the experiment with RPMI-8226 is 12.7 µM (inactive); with HOP-62, 30.3 µM (inactive); in the experiment with SK-MEL-2, 16.4 µM (inactive); in the experiment on EKVX, 25.9 µM (inactive); in the experiment with CCRF-CEM, 5.37 µM (inactive); with SK-MEL-28 it was 30.5 µM (inactive). Besides, the GI50 with UACC-62 was 20 µM (inactive); with HCC 2998, 16.4 µM (inactive); in the experiment with M14, 17.4 µM (inactive); in the experiment with CAKI-1 it was 51.3 µM (inactive); with SF-268, 22.8 µM (inactive); in the experiment on A498, 23.3 µM (inactive). Moreover, the GI50 in the experiment with NCI-H522 is 10.7 µM (inactive); in the experiment with HT-29, 23.6 µM (inactive); in the experiment with HCT-116, 29 µM (inactive); with RXF 393, 24.5 µM (inactive); in the experiment on SF-295 it was 41.2 µM (inactive); in the experiment with 786-0 it was 19.9 µM (inactive). Moreover, the GI50 with COLO 205 was 18 µM (inactive); with OVCAR-8, 30.5 µM (inactive).

As to `CCCC[C@H]1C(=O)O[C@H](C)[C@H](NC(=O)c2cccc(NC=O)c2O)C(=O)O[C@@H](C)[C@@H]1OC(=O)CC(C)C` [ANTIMYCIN A3], the GI50 in the experiment on RPMI-8226 was 0.109 µM (active); with HOP-62, 8.41 µM (inactive); in the experiment with SK-MEL-2, 1.97 µM (inactive); in the experiment with EKVX, 0.321 µM (active); in the experiment on CCRF-CEM it was < 0.0229 µM (active); in the experiment on SK-MEL-28 it was 6.73 µM (inactive). In addition, the GI50 in the experiment with UACC-62 was 0.16 µM (active); with HCC 2998 it was 10.9 µM (inactive); in the experiment with M14, 14.9 µM (inactive); in the experiment with CAKI-1, 11.9 µM (inactive); in the experiment on SF-268 it was 6.56 µM (inactive); with A498, 4.23 µM (inactive). Besides, the GI50 in the experiment with NCI-H522 was 5.93 µM (inactive); in the experiment on HT-29, 1.6 µM (inactive); in the experiment with HCT-116, < 0.01 µM (active); with RXF 393, 6.49 µM (inactive); with SF-295, < 0.0421 µM (active); in the experiment with 786-0, 9.08 µM (inactive). Besides, the GI50 in the experiment with COLO 205 was 3.34 µM (inactive); in the experiment with OVCAR-8, 2.05 µM (inactive).

Turning to `O=C(O)Cc1ccccc1` [PHENYLACETIC ACID], the GI50 in the experiment with RPMI-8226, in the experiment on HOP-62, with SK-MEL-2, in the experiment on EKVX, with CCRF-CEM and in the experiment on SK-MEL-28 was > 100 µM (inactive) throughout. Also, the GI50 in the experiment with UACC-62, with HCC 2998, in the experiment on M14, with CAKI-1, in the experiment on SF-268 and with A498 was > 100 µM (inactive) in each case. In addition, the GI50 with NCI-H522 is > 100 µM (inactive); with HT-29 it was > 100 µM (inactive); in the experiment with HCT-116, > 100 µM (inactive); in the experiment with RXF 393, > 100 µM (inactive); in the experiment on SF-295 it was 841 µM (inactive); in the experiment with 786-0 it was > 100 µM (inactive). In addition, the GI50 in the experiment on COLO 205 and with OVCAR-8 was > 100 µM (inactive) throughout.
